Earlier results in patent publication US9012171B2, “Systems and methods for measuring translation activity in viable cells” (Anima Cell Metrology, Inc., priority 2007, dated 2015).

Test system: premature termination codons (PTC)
Settings: genetic disorders with premature termination codons in the coding sequence of a critical protein

O=C(O)c1cccc(-c2noc(-c3ccccc3F)n2)c1 [PTC124]
required protein produced, relative to normal concentrations: 1-5%
